# According to ChEMBL document CHEMBL4808199, “Cyclopentenone-Containing Tetrahydroquinoline and Geldanamycin Alkaloids from Streptomyces malaysiensis as Potential Anti-Androgens against Prostate Cancer Cells” (J Nat Prod, 2021):
# Activity calls are given as the source filed them. The rule behind the calls is not given here.
# Key:
# [1] = tested on: NCI-H446; assay: Cytotoxicity against human H446 cells; format: functional, cell-based
# [2] = tested on: LNCaP C4-2B; assay: Cytotoxicity against human C42B cells; format: functional, cell-based
# [3] = tested on: MGC-803; assay: Cytotoxicity against human MGC-803 cells; format: functional, cell-based
# [4] = tested on: MDA-MB-231; assay: Cytotoxicity against human MDA-MB-231 cells; format: functional, cell-based
# [5] = tested on: CWR22R; assay: Cytotoxicity against human 22Rv1 cells; format: functional, cell-based
# [6] = tested on: LNCaP C4-2B; assay: Induction of morphological changes in human C4-2B cells assessed as increase in intracellular spaces incubated for 24 hrs by microscopy; format: functional, cell-based
# [7] = tested on: LNCaP C4-2B; assay: Inhibition of androgen receptor mRNA expression in human C4-2B cells incubated for […] by qRT-PCR analysis; format: functional, cell-based
# [8] = tested on: LNCaP C4-2B; assay: Inhibition of colony formation in human C4-2B cells at 0.075 to 0.3 uM for 12 days by crystal violet staining based assay; format: functional, cell-based; settings: dose 0.075-0.3 µM, time 12.0 day
# [9] = tested on: CWR22R; assay: Induction of apoptosis in human 22Rv1 cells assessed as inhibition of Cyclin E protein expression at 0.15 to 0.6 uM incubated for […] by Immunoblotting analysis; format: functional, cell-based; settings: dose 0.15-0.6 µM
# [10] = Selective index, ratio of IC50 for human RWPE1 to IC50 for human H446 cells
# [11] = tested on: LNCaP C4-2B; assay: Induction of morphological changes in human C4-2B cells assessed as decrease in cell size incubated for 24 hrs by microscopy; format: functional, cell-based
# [12] = tested on: CWR22R; assay: Induction of apoptosis in human 22Rv1 cells assessed as inhibition of KLK3 mRNA expression at 0.15 to 0.6 uM incubated for […] by qRT-PCR analysis; format: functional, cell-based; settings: dose 0.15-0.6 µM
# [13] = tested on: LNCaP C4-2B; assay: Induction of cell cycle arrest in human C4-2B cells assessed as accumulation of cells at S phase at 0.3 uM incubated for 48 hrs by RED-B-HLi fluorescence assay (reference value: 42.69%); format: functional
# [14] = tested on: CWR22R; assay: Inhibition of androgen receptor protein expression in human 22Rv1 cells incubated for […] by Immunoblotting analysis; format: functional, cell-based
# [15] = tested on: LNCaP C4-2B; assay: Induction of apoptosis in human C4-2B cells assessed as increase in cleaved 7 level after 24 hrs by immunoblotting analysis relative to control; format: functional, cell-based
# [16] = tested on: LNCaP C4-2B; assay: Induction of apoptosis in human C4-2B cells assessed as increase in caspase 3/7 activity at 0.3 uM after 24 hrs relative to control; format: functional, cell-based
# [17] = tested on: LNCaP C4-2B; assay: Induction of apoptosis in human C4-2B cells assessed as inhibition of KLK2 mRNA expression at 0.075 to 0.3 uM incubated for […] by qRT-PCR analysis; format: functional, cell-based; settings: dose 0.075-0.3 µM
# [18] = tested on: CWR22R; assay: Induction of apoptosis in human 22Rv1 cells assessed as inhibition of Cmyc protein expression at 0.15 to 0.6 uM incubated for […] by Immunoblotting analysis; format: functional, cell-based; settings: dose 0.15-0.6 µM, time […]
# [19] = tested on: LNCaP C4-2B; assay: Inhibition of androgen receptor protein expression in human C4-2B cells incubated for […] by Immunoblotting analysis; format: functional, cell-based
# [20] = tested on: LNCaP C4-2B; assay: Induction of apoptosis in human C4-2B cells assessed as increase in cleaved PARP1 level after 24 hrs by immunoblotting analysis relative to control; format: functional, cell-based
# [21] = tested on: CWR22R; assay: Inhibition of colony formation in human 22Rv1 cells at 0.075 to 0.3 uM for 12 days by crystal violet staining based assay; format: functional, cell-based; settings: dose 0.075-0.3 µM, time 12.0 day
# [22] = tested on: LNCaP C4-2B; assay: Induction of cell cycle arrest in human C4-2B cells assessed as accumulation of cells at G0/G1 phase at 0.3 uM incubated for 48 hrs by RED-B-HLi fluorescence assay (reference value: 41.57%); format: functional
# [23] = tested on: CWR22R; assay: Inhibition of androgen receptor mRNA expression in human 22Rv1 cells incubated for […] by […] analysis; format: functional, cell-based
# [24] = tested on: LNCaP C4-2B; assay: Induction of apoptosis in human C4-2B cells assessed as inhibition of Cyclin E protein expression at 0.075 to 0.3 uM incubated for […] by Immunoblotting analysis; format: functional, cell-based; settings: dose 0.075-0.3 µM
# [25] = tested on: CWR22R; assay: Induction of apoptosis in human 22Rv1 cells assessed as increase in cleaved 7 level after 24 hrs by immunoblotting analysis relative to control; format: functional, cell-based
# [26] = tested on: LNCaP C4-2B; assay: Induction of cell cycle arrest in human C4-2B cells assessed as accumulation of cells at G2-M phase at 0.3 uM incubated for 48 hrs by RED-B-HLi fluorescence assay (reference value: 15.74%); format: functional
# [27] = tested on: LNCaP C4-2B; assay: Induction of apoptosis in human C4-2B cells assessed as inhibition of KLK3 mRNA expression at 0.075 to 0.3 uM incubated for […] by qRT-PCR analysis; format: functional, cell-based; settings: dose 0.075-0.3 µM
# [28] = tested on: LNCaP C4-2B; assay: Induction of apoptosis in human C4-2B cells assessed as inhibition of Cmyc protein expression at 0.075 to 0.3 uM incubated for […] by Immunoblotting analysis; format: functional, cell-based; settings: dose 0.075-0.3 µM
# [29] = tested on: CWR22R; assay: Induction of apoptosis in human 22Rv1 cells assessed as inhibition of KLK2 mRNA expression at 0.15 to 0.6 uM incubated for […] by qRT-PCR analysis; format: functional, cell-based; settings: dose 0.15-0.6 µM
# [30] = tested on: RWPE-1; assay: Cytotoxicity against human RWPE-1 cells; format: cell-based
# [31] = tested on: CWR22R; assay: Induction of apoptosis in human 22Rv1 cells assessed as increase in cleaved PARP1 level after 24 hrs by immunoblotting analysis relative to control; format: functional, cell-based
# [32] = tested on: CWR22R; assay: Induction of apoptosis in human 22Rv1 cells assessed as increase in caspase 3/7 activity at 0.3 uM after 24 hrs relative to control; format: functional, cell-based
# [33] = Selective index, ratio of IC50 for human RWPE1 to IC50 for human LNCaP C4-2B cells; format: toxicity; settings: RWPE1 cells and LNCaP C4-2B cells, read-out: Selectivity Index
structure (smiles),measurement,setting,value
CO[C@H]1C[C@H](C)Cc2cc(O)cc(c2)NC(=O)/C(C)=C/CC[C@H](OC)[C@@H](OC(N)=O)/C(C)=C/[C@H](C)[C@H]1O,IC50,[1],28 µM
same,IC50,[2],32 µM
same,IC50,[3],> 40 µM
same,IC50,[4],> 40 µM
same,IC50,[5],35 µM
CC[C@@H]1[C@@H](C)O[C@@](OC)(/C(C)=C/[C@H](C)[C@H]2OC(=O)/C=C/C=C/[C@H](C)[C@@H]([C@@H](C)/C=C(\C)[C@@]3(OC)C[C@@H](OC)[C@H](CC)[C@@H](C)O3)OC(=O)/C=C/C=C/[C@@H]2C)C[C@H]1OC,IC50,[1],25 µM
same,IC50,[2],14 µM
same,IC50,[3],10 µM
same,IC50,[4],7.2 µM
same,IC50,[5],23 µM
COC(=O)[C@@]1(O)C(OC)=C2C[C@@H](C)C[C@H](OC)[C@H](O)[C@@H](C)/C=C(\C)[C@H](OC(N)=O)[C@@H](OC)/C=C\C=C(/C)C(=O)N[C@@H]1C2=O,IC50,[1],2.9 µM
same,IC50,[2],> 40 µM
same,IC50,[3],> 40 µM
same,IC50,[4],> 40 µM
same,IC50,[5],> 40 µM
COC[C@]1(CCC(C)=C(C)C)Nc2ccc(C(=O)NC3=C(O)CCC3=O)cc2C[C@@H]1Cl,Activity,[6],Active
same,inhibition,[7],Active
same,inhibition,[8],Active
same,Activity,[9],Active
same,Selectivity Index,[10],3.1
same,Activity,[11],Active
same,Activity,[12],Active
same,Activity,[13],24.3%
same,inhibition,[14],Active
same,IC50,[1],0.07 µM
same,IC50,[2],0.067 µM
same,Activity,[15],Dose-Dependent Effect
same,Activity,[16],Active
same,Activity,[17],Active
same,IC50,[3],0.11 µM
same,Activity,[18],Active
same,inhibition,[19],Active
same,Activity,[20],Dose-Dependent Effect
same,inhibition,[21],Active
same,Activity,[22],56.03%
same,inhibition,[23],Active
same,Activity,[24],Active
same,Activity,[25],Dose-Dependent Effect
same,Activity,[26],19.67%
same,IC50,[4],0.2 µM
same,Activity,[27],Active
same,Activity,[28],Active
same,IC50,[5],0.27 µM
same,Activity,[29],Active
same,IC50,[30],0.21 µM
same,Activity,[31],Dose-Dependent Effect
same,Activity,[32],Active
CO[C@H]1/C=C\C=C(/C)C(=O)NC2=CC(=O)C(O)=C(C[C@@H](C)C[C@H](OC)[C@H](O)[C@@H](C)/C=C(\C)[C@@H]1OC(N)=O)C2=O,IC50,[1],25 µM
same,IC50,[2],11 µM
same,IC50,[3],19 µM
same,IC50,[4],17 µM
same,IC50,[5],25 µM
CC[C@@H]1[C@@H](C)O[C@@](OC)([C@@H](C)[C@H](O)[C@H](C)[C@H]2OC(=O)/C=C/C=C/[C@H](C)[C@@H]([C@@H](C)[C@@H](O)[C@H](C)[C@@]3(OC)C[C@@H](OC)[C@H](CC)[C@@H](C)O3)OC(=O)/C=C/C=C/[C@@H]2C)C[C@H]1OC,IC50,[1],> 40 µM
same,IC50,[2],> 40 µM
same,IC50,[3],> 40 µM
same,IC50,[4],> 40 µM
same,IC50,[5],> 40 µM
COC1=C2C[C@@H](C)C[C@H](OC)[C@H](O)[C@@H](C)/C=C(\C)[C@H](OC(N)=O)[C@@H](OC)/C=C\C=C(/C)C(=O)NC(=CC1=O)C2=O [GELDANAMYCIN],IC50,[1],2.2 µM
same,IC50,[2],0.5 µM
same,IC50,[3],3.3 µM
same,selectivity ratio,[33],7.6
same,IC50,[4],1.9 µM
same,IC50,[5],0.85 µM
same,IC50,[30],3.8 µM
COC1=C2C[C@@H](C)C[C@H](OC)[C@H](O)[C@@H](C)/C=C(\C)[C@H](OC(N)=O)[C@@H](OC)/C=C\C=C(/C)C(=O)NC(=C(SC)C1=O)C2=O,IC50,[1],3.9 µM
same,IC50,[2],3.6 µM
same,IC50,[3],7.9 µM
same,IC50,[4],5.2 µM
same,IC50,[5],3.7 µM
CC[C@@H](/C=C/C(=O)[C@@H](C)[C@H](O)[C@H](C)[C@H]1OC(=O)/C=C/C=C/[C@H](C)[C@@H]([C@@H](C)[C@@H](O)[C@H](C)C(=O)/C=C/[C@H](CC)[C@@H](C)O)OC(=O)/C=C/C=C/[C@@H]1C)[C@@H](C)O,IC50,[1],25 µM
same,IC50,[2],25 µM
same,IC50,[3],> 40 µM
same,IC50,[4],> 40 µM
same,IC50,[5],> 40 µM
CNC(=O)c1ccc(N2C(=S)N(c3ccc(C#N)c(C(F)(F)F)c3)C(=O)C2(C)C)cc1F [ENZALUTAMIDE],selectivity ratio,[33],> 2.2
same,IC50,[5],38 µM
same,IC50,[30],> 40 µM
